Assay results published in patent US20240218022A1, “ANTI-VISTA MACROCYCLIC PEPTIDES AND COMPOSITIONS” (BRISTOL-MYERS SQUIBB COMPANY, priority 2022, published 2024).
Positions of bridges follow the written chain, without caps; N, C: chain ends. Non-standard residues stand in square brackets, D forms with d. Residues, ends and D or L forms follow the SMILES beside them. 2Nal = N[C@@H](Cc1ccc2ccccc2c1)C(=O)O; Tic = O=C(O)[C@@H]1Cc2ccccc2CN1; Cit = NC(=O)NCCC[C@H](N)C(=O)O; Ahp(2) = CCCCC[C@H](N)C(=O)O; NMeNle = CCCC[C@H](NC)C(=O)O; NHexGly = CCCCCCNCC(=O)O; Nle = CCCC[C@H](N)C(=O)O

Molecular target: T1, mouse VISTA (mVISTA) (Mus musculus, UniProt Q9D659)
T1 construct: expressed in transfected cells; host or cells: Human embryonic kidney 293T cells
T1 sequence (Q9D659 33-308): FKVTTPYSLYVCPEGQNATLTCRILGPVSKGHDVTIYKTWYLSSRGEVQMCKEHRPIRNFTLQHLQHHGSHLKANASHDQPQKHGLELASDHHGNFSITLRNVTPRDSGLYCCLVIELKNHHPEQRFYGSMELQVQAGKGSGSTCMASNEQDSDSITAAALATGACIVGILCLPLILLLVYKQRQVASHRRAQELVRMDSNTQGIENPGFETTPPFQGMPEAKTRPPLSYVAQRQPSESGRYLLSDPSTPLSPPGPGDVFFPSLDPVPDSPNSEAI
Test: Cell-Based Binding High-Content Assay For mVISTA (HC CBA mVISTA)
Conditions: cell-based binding high-content assay, mVISTA; the 16th table; read-out: HC CBA mVISTA IC50
Outline: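 Competition of compound with a biotinylated peptide (final 2 nM, 30 min at RT) for binding to mVISTA on 293T cells, run under no-wash or wash (1 h compound preincubation then removal) formats. Readout by Alexa 647–streptavidin imaging on a high-content platform; four-parameter logistic fit gave IC50.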

SMILES | IC50 [nM]
CCCCCCN1CC(=O)N[C@@H](Cc2ccc(O)cc2)C(=O)N[C@@H](CC(C)C)C(=O)NCC(=O)N[C@@H](CCCNC(=N)N)C(=O)N[C@@H](Cc2ccc(O)cc2)C(=O)N[C@@H](CCCCC)C(=O)N2CCC[C@H]2C(=O)N[C@@H](C(C)C)C(=O)N[C@@H](CO)C(=O)N[C@H](C(=O)NCC(=O)O)CSCC(=O)N[C@@H](Cc2ccc3ccccc3c2)C(=O)N[C@@H](Cc2ccc(O)cc2)C(=O)N[C@@H](CC(=O)O)C1=O [Ex 1292] ({CH2CO}-[2Nal]YD[NHexGly]YLGRY[Ahp(2)]PVSCG-OH; thioether N-14) | 29.9
CCCCCCN1CC(=O)N[C@@H](Cc2ccc(O)cc2)C(=O)N[C@@H](CC(C)C)C(=O)NCC(=O)N[C@@H](CCCNC(=N)N)C(=O)N[C@@H](CC(N)=O)C(=O)N[C@@H](CCCCC)C(=O)N2CCC[C@H]2C(=O)N[C@@H](C(C)C)C(=O)N[C@@H](CO)C(=O)N[C@H](C(=O)NCC(=O)O)CSCC(=O)N[C@@H](Cc2ccc3ccccc3c2)C(=O)N[C@@H](Cc2ccc(O)cc2)C(=O)N[C@@H](CC(=O)O)C1=O [Ex 1293] ({CH2CO}-[2Nal]YD[NHexGly]YLGRN[Ahp(2)]PVSCG-OH; thioether N-14) | 19.9
CCCCCCN1CC(=O)N[C@@H](Cc2ccc(O)cc2)C(=O)N[C@@H](CC(C)C)C(=O)NCC(=O)N[C@@H](CCCNC(=N)N)C(=O)N(C)[C@@H](CCCC)C(=O)N[C@@H](CCCCC)C(=O)N2CCC[C@H]2C(=O)N[C@@H](C(C)C)C(=O)N[C@@H](CO)C(=O)N[C@H](C(=O)NCC(N)=O)CSCC(=O)N[C@@H](Cc2ccc3ccccc3c2)C(=O)N[C@@H](Cc2ccc(O)cc2)C(=O)N[C@@H](CC(=O)O)C1=O [Ex 1294] ({CH2CO}-[2Nal]YD[NHexGly]YLGR[NMeNle][Ahp(2)]PVSCG-NH2; thioether N-14) | 9.3
CCCCCCN1CC(=O)N[C@@H](Cc2ccc(O)cc2)C(=O)N[C@@H](CC(C)C)C(=O)NCC(=O)N[C@@H](CCCNC(=N)N)C(=O)N[C@@H](CC(N)=O)C(=O)N[C@@H](CCCCC)C(=O)N2CCC[C@H]2C(=O)N[C@@H](C(C)C)C(=O)N[C@@H](CO)C(=O)N[C@H](C(=O)NCC(N)=O)CSCC(=O)N[C@@H](Cc2ccc3ccccc3c2)C(=O)N[C@@H](Cc2ccc(O)cc2)C(=O)N[C@@H](CC(=O)O)C1=O [Ex 1295] ({CH2CO}-[2Nal]YD[NHexGly]YLGRN[Ahp(2)]PVSCG-NH2; thioether N-14) | 31.4
CCCCCCN1CC(=O)N[C@@H](Cc2ccc(O)cc2)C(=O)N[C@@H](CC(C)C)C(=O)NCC(=O)N[C@@H](CCCNC(=N)N)C(=O)N[C@@H](CCCCN)C(=O)N[C@@H](CCCCC)C(=O)N2CCC[C@H]2C(=O)N[C@@H](C(C)C)C(=O)N[C@@H](CO)C(=O)N[C@H](C(=O)NCC(=O)O)CSCC(=O)N[C@@H](Cc2ccc3ccccc3c2)C(=O)N[C@@H](Cc2ccc(O)cc2)C(=O)N[C@@H](CC(=O)O)C1=O [Ex 1296] ({CH2CO}-[2Nal]YD[NHexGly]YLGRK[Ahp(2)]PVSCG-OH; thioether N-14) | 17.3
CCCCCCN1CC(=O)N[C@@H](Cc2ccc(O)cc2)C(=O)N[C@@H](CC(C)C)C(=O)NCC(=O)N[C@@H](CCCNC(=N)N)C(=O)N[C@@H](Cc2ccc(O)cc2)C(=O)N[C@@H](CCCCC)C(=O)N2CCC[C@H]2C(=O)N[C@@H](C(C)C)C(=O)N[C@@H](CO)C(=O)N[C@H](C(=O)NCC(N)=O)CSCC(=O)N[C@@H](Cc2ccc3ccccc3c2)C(=O)N[C@@H](Cc2ccc(O)cc2)C(=O)N[C@@H](CC(=O)O)C1=O [Ex 1297] ({CH2CO}-[2Nal]YD[NHexGly]YLGRY[Ahp(2)]PVSCG-NH2; thioether N-14) | 35.7
CCCCCCN1CC(=O)N[C@@H](Cc2ccc(O)cc2)C(=O)N[C@@H](CC(C)C)C(=O)NCC(=O)N[C@@H](CCCNC(=N)N)C(=O)N[C@@H](Cc2ccc(O)cc2)C(=O)N[C@@H](CCCCC)C(=O)N2CCC[C@H]2C(=O)N[C@@H](C(C)C)C(=O)N[C@@H](CC(=O)O)C(=O)N[C@H](C(=O)NCC(N)=O)CSCC(=O)N[C@@H](Cc2ccc3ccccc3c2)C(=O)N[C@@H](Cc2ccc(O)cc2)C(=O)N[C@@H](CC(=O)O)C1=O [Ex 1298] ({CH2CO}-[2Nal]YD[NHexGly]YLGRY[Ahp(2)]PVDCG-NH2; thioether N-14) | 36.1
CCCCCCN1CC(=O)N[C@@H](Cc2ccc(O)cc2)C(=O)N[C@@H](CC(C)C)C(=O)NCC(=O)N[C@@H](CCCNC(=N)N)C(=O)N[C@@H](Cc2ccc(O)cc2)C(=O)N[C@@H](CCCCC)C(=O)N2CCC[C@H]2C(=O)N[C@@H](C(C)C)C(=O)N[C@@H](C(C)C)C(=O)N[C@H](C(=O)NCC(=O)O)CSCC(=O)N[C@@H](Cc2ccc3ccccc3c2)C(=O)N[C@@H](Cc2ccc(O)cc2)C(=O)N[C@@H](CC(=O)O)C1=O [Ex 1299] ({CH2CO}-[2Nal]YD[NHexGly]YLGRY[Ahp(2)]PVVCG-OH; thioether N-14) | 33.2
CCCCCCN1CC(=O)N[C@@H](Cc2ccc(O)cc2)C(=O)N[C@@H](CCCC)C(=O)N[C@@H](CC(N)=O)C(=O)N[C@@H](CCCNC(N)=O)C(=O)N[C@@H](CC(C)C)C(=O)N[C@@H](CCCCC)C(=O)N2CCC[C@H]2C(=O)N[C@@H](C(C)C)C(=O)N[C@@H](CC(=O)O)C(=O)N[C@H](C(=O)NCC(=O)O)CSCC(=O)N[C@@H](Cc2ccc3ccccc3c2)C(=O)N[C@@H](Cc2ccc(O)cc2)C(=O)N[C@@H](CC(=O)O)C1=O [Ex 1300] ({CH2CO}-[2Nal]YD[NHexGly]Y[Nle]N[Cit]L[Ahp(2)]PVDCG-OH; thioether N-14) | 4.9
CCCCCCN1CC(=O)N[C@@H](Cc2ccc(O)cc2)C(=O)N[C@@H](CCCC)C(=O)N[C@@H](CC(N)=O)C(=O)N[C@@H](CCCNC(N)=O)C(=O)N(C)[C@@H](CCCC)C(=O)N[C@@H](CCCCC)C(=O)N2CCC[C@H]2C(=O)N[C@@H](C(C)C)C(=O)N[C@@H](CC(=O)O)C(=O)N[C@H](C(=O)NCC(=O)O)CSCC(=O)N[C@@H](Cc2ccc3ccccc3c2)C(=O)N[C@@H](Cc2ccc(O)cc2)C(=O)N[C@@H](CC(=O)O)C1=O [Ex 1301] ({CH2CO}-[2Nal]YD[NHexGly]Y[Nle]N[Cit][NMeNle][Ahp(2)]PVDCG-OH; thioether N-14) | 5.6

More lines, now with the values ahead:

IC50 [nM] | SMILES
7.5 | CCCCCCN1CC(=O)N[C@@H](Cc2ccc(O)cc2)C(=O)N[C@@H](CCCCC)C(=O)NCC(=O)N[C@@H](CCCNC(N)=O)C(=O)N[C@@H](CC(C)C)C(=O)N[C@@H](CCCCC)C(=O)N2CCC[C@H]2C(=O)N[C@@H](C(C)C)C(=O)N[C@@H](CO)C(=O)N[C@H](C(=O)NCC(N)=O)CSCC(=O)N[C@@H](Cc2ccc3ccccc3c2)C(=O)N[C@@H](Cc2ccc(O)cc2)C(=O)N[C@@H](CC(=O)O)C1=O [Ex 1302] ({CH2CO}-[2Nal]YD[NHexGly]Y[Ahp(2)]G[Cit]L[Ahp(2)]PVSCG-NH2; thioether N-14)
8.8 | CCCCCCN1CC(=O)N[C@@H](Cc2ccc(O)cc2)C(=O)N[C@@H](CCCC)C(=O)NCC(=O)N[C@@H](CCCNC(N)=O)C(=O)N[C@@H](CC(C)C)C(=O)N[C@@H](CCCCC)C(=O)N2CCC[C@H]2C(=O)N[C@@H](C(C)C)C(=O)N[C@@H](CC(=O)O)C(=O)N[C@H](C(=O)NCC(N)=O)CSCC(=O)N[C@@H](Cc2ccc3ccccc3c2)C(=O)N[C@@H](Cc2ccc(O)cc2)C(=O)N[C@@H](CC(=O)O)C1=O [Ex 1303] ({CH2CO}-[2Nal]YD[NHexGly]Y[Nle]G[Cit]L[Ahp(2)]PVDCG-NH2; thioether N-14)
31.5 | CCCCCCN1CC(=O)N[C@@H](Cc2ccc(O)cc2)C(=O)N[C@@H](CCCC)C(=O)N[C@@H](CC(N)=O)C(=O)N[C@@H](CCCNC(=N)N)C(=O)N2Cc3ccccc3C[C@H]2C(=O)N[C@@H](CCCCC)C(=O)N2CCC[C@H]2C(=O)N[C@@H](C(C)C)C(=O)N[C@@H](CO)C(=O)N[C@H](C(=O)NCC(N)=O)CSCC(=O)N[C@@H](Cc2ccc3ccccc3c2)C(=O)N[C@@H](Cc2ccc(O)cc2)C(=O)N[C@@H](CC(=O)O)C1=O [Ex 1304] ({CH2CO}-[2Nal]YD[NHexGly]Y[Nle]NR[Tic][Ahp(2)]PVSCG-NH2; thioether N-14)
10.3 | CCCCCCN1CC(=O)N[C@@H](Cc2ccc(O)cc2)C(=O)N[C@@H](CCCC)C(=O)N[C@@H](CC(N)=O)C(=O)N[C@@H](CCCNC(N)=O)C(=O)N2Cc3ccccc3C[C@H]2C(=O)N[C@@H](CCCCC)C(=O)N2CCC[C@H]2C(=O)N[C@@H](C(C)C)C(=O)N[C@@H](CC(=O)O)C(=O)N[C@H](C(=O)NCC(N)=O)CSCC(=O)N[C@@H](Cc2ccc3ccccc3c2)C(=O)N[C@@H](Cc2ccc(O)cc2)C(=O)N[C@@H](CC(=O)O)C1=O [Ex 1305] ({CH2CO}-[2Nal]YD[NHexGly]Y[Nle]N[Cit][Tic][Ahp(2)]PVDCG-NH2; thioether N-14)
25.2 | CCCCCCN1CC(=O)N[C@@H](Cc2ccc(O)cc2)C(=O)N[C@@H](CCCC)C(=O)N[C@@H](CC(N)=O)C(=O)N[C@@H](CCCNC(N)=O)C(=O)N2Cc3ccccc3C[C@H]2C(=O)N[C@@H](CCCCC)C(=O)N2CCC[C@H]2C(=O)N[C@@H](C(C)C)C(=O)N[C@@H](CO)C(=O)N[C@H](C(=O)NCC(N)=O)CSCC(=O)N[C@@H](Cc2ccc3ccccc3c2)C(=O)N[C@@H](Cc2ccc(O)cc2)C(=O)N[C@@H](CC(=O)O)C1=O [Ex 1306] ({CH2CO}-[2Nal]YD[NHexGly]Y[Nle]N[Cit][Tic][Ahp(2)]PVSCG-NH2; thioether N-14)
11.4 | CCCCCCN1CC(=O)N[C@@H](Cc2ccc(O)cc2)C(=O)N[C@@H](CCCC)C(=O)N[C@@H](CC(N)=O)C(=O)N[C@@H](CCCNC(=N)N)C(=O)N2Cc3ccccc3C[C@H]2C(=O)N[C@@H](CCCCC)C(=O)N2CCC[C@H]2C(=O)N[C@@H](C(C)C)C(=O)N[C@@H](CC(=O)O)C(=O)N[C@H](C(=O)NCC(N)=O)CSCC(=O)N[C@@H](Cc2ccc3ccccc3c2)C(=O)N[C@@H](Cc2ccc(O)cc2)C(=O)N[C@@H](CC(=O)O)C1=O [Ex 1307] ({CH2CO}-[2Nal]YD[NHexGly]Y[Nle]NR[Tic][Ahp(2)]PVDCG-NH2; thioether N-14)
